Here are results for 89 compounds from a melting point compilation (Tetko et al.; mined from patent text by program, amines drawn as free bases though some values may be those of a salt).

The structures appear in SMILES notation.

As usually defined, the melting point is the temperature, or range, at which the solid turns liquid. Consider `N#Cc1ccc(N2CC(=O)NC2=O)c(-c2cccs2)c1`, for which the melting point amounted to 189 °C.

Consider `C=CCc1cccc2c(=O)cc(-c3ccc(F)c(F)c3)oc12`, for which the melting point fell in the range of 127 to 130 °C.

With `CC(C)(C)C(O)Cn1ccnc1` (centres undefined), the melting point was 239 to 241 °C.

Consider `COC(=O)C(C)(C)Oc1ccc(-c2ccc(CCNC(=O)c3cc(Cl)ccc3OC)cc2)cc1`, for which the melting point was less than 20 °C.

The compound `Cc1ccc(S(=O)(=O)NC(=O)C2C(=O)CC(C)CC2=O)cc1` (centres undefined) had a melting point of 122 °C.

The compound `O=C(Nc1ccc(Cl)c(Cl)c1)c1ccccc1SSc1ccccc1C(=O)Nc1ccc(Cl)c(Cl)c1` gave a melting point of 230 to 233 °C.

In turn, `CC(C)[C@H](NC(=O)CNC(=O)OCC1c2ccccc2-c2ccccc21)C(=O)O` showed a melting point of 69 to 71 °C.

As for `NS(=O)(=O)c1cccc(NC(=O)c2cnn3c(C(F)F)cc(-c4ccc(C(F)(F)F)c(OCC(F)(F)F)c4)nc23)c1`, the melting point stood at 241 °C.

The compound `C=CC(=O)Nc1cccc2c1sc1c(Nc3cccc(Br)c3)c(C#N)cnc12` showed a melting point of 286 to 287 °C.

Compound `COc1cc(Cl)ccc1CN1C(=O)C(C)(c2cc(C(=O)N3CCCCC3)ccc2Cl)c2cc(Cl)ccc21` (centres undefined) had a melting point of 205 °C.

In the case of `C=CCNC(=O)n1nc(NC)n(C)c1=O`, the melting point fell in the range of 136 to 137 °C.

In turn, `CC(=O)OC1CCC2(C)C(=CCC3C2CCC2(C)C(n4ncnn4)=CCC32)C1` (centres undefined) had a melting point of 155 to 156 °C.

Take `N=C(N)Nc1nc2ccc(OCc3ccccc3)cc2[nH]1`: the melting point lay in the range of 224 to 227 °C.

As for `C/C(=C(\C#N)C(N)=S)N1CCCN(c2ccccc2Cl)CC1`, the melting point was 123 to 124 °C.

In turn, `O=C(Nc1nccs1)C(CC1CCCC1)c1ccc(Cl)c([N+](=O)[O-])c1` (centres undefined) gave a melting point of 68 to 72 °C.

The compound `NC(/C=C(/F)P(=O)(O)O)CCc1ccc(Sc2cccc(OCc3ccccc3)c2)cc1Cl` (centres undefined) returned a melting point of 285 to 288 °C.

`CS(=O)(=O)c1ccc(C2=C(c3ccc(F)cc3)C(=O)N(C3CC3)C2)cc1` showed a melting point of 170 to 172 °C.

`O=C1C(Cl)=C(c2ccccc2)C(=O)N1c1ccccc1` returned a melting point of 82 to 83 °C.

`O=C(C=Cc1ccc(F)cc1)c1c(F)c(F)c(F)c(F)c1F`: the melting point fell in the range of 80 to 84 °C.

Take `CC(C)C[C@@H](COCC(N)=O)NC(=O)OCc1ccccc1`: the melting point is 78 to 79 °C.

As for `C=Cc1nc(Cl)nc(Cl)c1OC`, the melting point is 60 to 61 °C.

On to `CCOC(=O)Cc1c(C)[nH]c2ccc(F)cc12`, for which the melting point lay in the range of 61 to 62 °C.

In turn, `CCCCCCCCCCCCOCC(CO)(CO)COCCCCCCCCCCCC` gave a melting point of 54 to 55 °C.

The compound `O=C(O)CCn1cc(Br)c2c3c(c(-c4ccccc4Cl)cc21)C(=O)NC3=O` had a melting point of 182 to 186 °C.

Regarding `c1cncc(-c2cccc(-n3cnc4cc(-c5ccoc5)cnc43)c2)c1`, the melting point fell in the range of 191 to 192 °C.

As for `CCOC(=O)c1cccc(-c2ccccc2C#N)c1`, the melting point is 81.5 to 82 °C.

`O=C1c2cccnc2N(c2ccccc2)C(=O)C12CCCC2`: the melting point was 178 to 179 °C.

`Cc1ccc(-c2cn(C)cc(-c3cccc(C(F)(F)F)c3)c2=O)cc1C` gave a melting point of 150 to 153 °C.

Compound `Cc1ccc2c(-c3cc(C(C)(C)C)c(O)c(C(C)(C)C)c3)nn(CCO)c2n1` displayed a melting point of 183 to 185 °C.

Compound `COc1nc(C)nc(NC(=NS(=O)(=O)c2cccnc2)SC)n1` gave a melting point of 146 to 149 °C.

The compound `Cc1ccccc1-n1c(-c2cc(-c3ccc(Cl)cc3)c(N3CCOCC3)s2)nc2ccccc2c1=O` returned a melting point of 186 to 189 °C.

In the case of `CC(C)=NOCOc1cc(-n2c(=O)cc(C(F)(F)F)n(C)c2=O)c(F)cc1Br`, the melting point turned out to be 121 °C.

Regarding `CCCCOC(=O)NCC(=O)NCC1C2CCC(O2)C1CC=CCCCC(=O)O` (centres undefined), the melting point fell in the range of 104 to 106 °C.

`COc1ccc(C(=O)c2cccc(C)c2Cl)cc1` had a melting point of 64.7 to 65.8 °C.

Turning to `COc1ccc(CCCC2CCNCC2)cc1`, the melting point lay within 65 to 70 °C.

As to `Nc1sc2c(c1C(=O)c1ccsc1)CCN(Cc1ccccc1)C2`, the melting point lay in the range of 131 to 133 °C.

Compound `Nc1ccc(N2CCN(CC(O)(Cn3cncn3)c3ccc(Cl)cc3Cl)CC2)cc1` (centres undefined) registered a melting point of 60 °C.

`C[C@@H]1CN(c2cccc(-c3cn[nH]c3N)c2)C[C@H](C)O1`: the melting point lay in the range of 158 to 160 °C.

Compound `Cc1cccc(C(=O)c2[nH]c3cc(Cl)ccc3c2CC(=O)O)n1` came in with a melting point of 230 to 231 °C.

`COC(=O)c1ccc([C@H]2CC[C@H](C3OCCO3)CC2)cc1`: the melting point lay in the range of 110 to 111 °C.

On to `Cc1nnc(C(=O)CCCCCCOc2ccc(O)cc2)o1`, for which the melting point lay in the range of 134 to 135 °C.

Compound `CCOC(=O)c1cn(CC)c2cc(N3CCNCC3)c(F)cc2c1=O` came in with a melting point of 178 to 180 °C.

`CCCCCCCCCCc1ccc2cc(SC)c(OS(=O)(=O)C(F)(F)F)cc2c1` gave a melting point of 149 to 150 °C.

For `CC(c1oc2ccccc2c(=O)c1-c1ccccc1)n1cnc2c(N)ncnc21` (centres undefined), the melting point was in the range of 254 to 257 °C.

As to `CC(=O)c1c(C)[nH]c(-c2ccccc2C)c1N`, the melting point turned out to be 258 °C.

Turning to `CC(C)CC(=O)Nc1cccc(-c2ccnc3c(-c4cccc(Cl)c4)cnn23)c1`, the melting point was 169 to 171 °C.

`CCc1ccc(C(=O)C(=O)O)[nH]1`: the melting point fell in the range of 126 to 128 °C.

`CCCCc1c(C(=O)OCC)cc(Oc2nnnn2-c2ccccc2)c2ccc(OC)cc12` showed a melting point of 94 to 96 °C.

`O=C1NCN(c2ccccc2)C12CCN(CC1CCc3ccc(F)cc3C1O)CC2` (centres undefined): the melting point fell in the range of 210 to 212 °C.

`Nc1nc2c(c(=O)[nH]1)CCCC2` had a melting point of more than 300 °C.

In turn, `COC(=O)C1=C(C)NN=C(C(=O)OC2CCCC2)C1c1ccccc1Cl` (centres undefined) returned a melting point of 152 °C.

`CC(=O)CN(C(=O)c1ccco1)c1c(C)cccc1C`: the melting point lay in the range of 90 to 91 °C.

`O=C(NC(CCl)c1ccc(-c2ccc(S(=O)(=O)C(F)F)cc2)cc1)c1c(F)cccc1F` (centres undefined): the melting point fell in the range of 146 to 149 °C.

`CCOC(=O)c1cn([C@@H]2C[C@@H]2F)c2cc(F)ccc2c1=O` registered a melting point of 227 to 230 °C.

On to `COc1ccc(NC(C)=O)cc1OCCCN1CCC(c2nsc3cc(F)ccc23)CC1`, for which the melting point is 109 to 111 °C.

In turn, `COC(=O)CCCC(=O)c1cc2c(c(S(N)(=O)=O)c1)OCC2` gave a melting point of 135 to 136 °C.

`COc1cc2c(cc1Nc1ncc(F)c(Nc3ccc(N4CCOCC4)cc3OC)n1)CCN(CC(=O)OC(C)C)CC2` gave a melting point of 94 to 110 °C.

The compound `CCOC(=O)c1cc(CC)sc1Nc1ccc(C(F)F)cc1[N+](=O)[O-]` yielded a melting point of 88 to 90 °C.

`O=c1[nH]c2cc(Cl)ccc2n1C1CCN(CCNC(c2ccc(F)cc2)c2ccc(F)cc2)CC1` returned a melting point of 199 °C.

In turn, `O=C(c1ccc(Br)cc1)N(C1CCCCC1)C1CCCC1` had a melting point of 110 to 112 °C.

The compound `COc1ccc2cnc(N)nc2c1C(C)C` gave a melting point of 112 to 113 °C.

The compound `CC(=O)N[C@@H](CSC(=O)C(C)C)C(=O)NCCSC(=O)C(C)C` gave a melting point of 99 to 100 °C.

In turn, `NC(=O)c1ccc(CCCNCC(O)c2ccccc2)s1` (centres undefined) gave a melting point of 94 to 96 °C.

Regarding `CC(C)CCCC(C)C1CCC2C3CC(Br)=C4CC(O)CCC4(C)C3CCC12C` (centres undefined), the melting point amounted to 155 °C.

On to `Cc1cc(-c2nc3ccccc3c(=O)n2-c2ccc(F)cc2)cc(C)c1OCCO`, for which the melting point lay within 95 to 97 °C.

For the compound `OCc1cccc(Nc2ncc(-c3ccccc3)s2)n1`, the melting point fell in the range of 196 to 198 °C.

As for `COc1c(C)c2c(c(OS(=O)(=O)c3ccc(C)cc3)c1CC1=C(C)C(O)CC1)C(=O)OC2` (centres undefined), the melting point was in the range of 108 to 112 °C.

As to `CC(C)(C)OC(=O)CNc1nc(NCc2ccc(NC(=O)c3ccc(F)cc3)cc2)c2ccccc2n1`, the melting point turned out to be 96 °C.

On to `Cc1ccc(-c2cc(C(F)(F)F)nn2-c2ccc(S(N)(=O)=O)c(F)c2)cc1`, for which the melting point fell in the range of 126 to 128 °C.

Take `O=C(c1ccc(-c2cc(Cl)ccc2O)cc1C(F)(F)F)N1CCCC1`: the melting point was 220 to 221 °C.

Compound `O=[N+]([O-])c1ccccc1COc1cccc2cccnc12` displayed a melting point of 152 °C.

The compound `CCCCN(Cc1ccc(-c2ccccc2-c2nnn[nH]2)cc1)c1ncncc1C(=O)OC(C)OC(=O)C(C)(C)C` (centres undefined) had a melting point of 71 to 85 °C.

In the case of `CCn1c(=O)ccc2cnc(Nc3ccc(N4CCOCC4)cc3)nc21`, the melting point was in the range of 227 to 228 °C.

Regarding `COc1ccc(/C=N/N2CCCCC2)cc1OC1CCCC1`, the melting point was 81 to 82 °C.

Turning to `O=C(O)c1ccc(-c2cccc(O)c2)cc1`, the melting point amounted to 180 °C.

As to `O=C(CCc1ccccc1)c1cc2ccncc2[nH]1`, the melting point was in the range of 246 to 250 °C.

`Cn1nc(C(=O)NCc2ccc(Cl)cc2)c(=O)c2cc(CO)ccc21` came in with a melting point of 203 to 205 °C.

`O=C(O)CCC(CSc1ccc2ccccc2c1)C(=O)O` (centres undefined) gave a melting point of 140 to 142 °C.

Turning to `CO[C@@H]1CNCC[C@H]1NC(=O)c1cccc(C(F)(F)F)c1` (relative stereo), the melting point was 100 °C.

Turning to `CN1C(=O)C2C3CCC(CC3)C2(c2ccc(F)c(F)c2)C1=O` (centres undefined), the melting point is 133 to 136 °C.

For `O=C(O)CP(=O)(c1ccccc1)c1ccccc1`, the melting point lay in the range of 143 to 146 °C.

Take `CN(C)CCCOc1ccc(-c2nnc(-c3ccc(-c4ccccc4)cc3)o2)cc1`: the melting point lay within 130 to 132 °C.

Compound `CCCN(C=Cc1ccc([N+](=O)[O-])c2[nH]ncc12)CCC` had a melting point of 166 to 167 °C.

Consider `C1=CN(Cc2ccccc2)CCC1c1cc2ccccc2o1` (centres undefined), for which the melting point lay in the range of 139 to 140 °C.

As for `COC(=O)c1cc([N+](=O)[O-])c(C=Cc2ccc(OC)cc2)c([N+](=O)[O-])c1`, the melting point is 142 to 143 °C.

In turn, `CCCCCCNC(=O)Oc1ccc2oc3ccccc3c2c1` came in with a melting point of 109 to 110 °C.

`CCOC(=O)C(NC(=O)OC(C)(C)C)c1csc(NC(=O)OCC(Cl)(Cl)Cl)n1` (centres undefined) came in with a melting point of 94 to 95 °C.

On to `C=CCOc1ccc(OC(C(O)C(C)(C)C)n2cncn2)cc1` (centres undefined), for which the melting point is 85 °C.

`CC(=O)C(=CC(=O)O)c1ccccc1` returned a melting point of 70 °C.
